Measurements as given in patent US6642392B1 (priority 1997, dated 2003).
Read-outs that look alike come from different tables or passages of the source.

What was measured:
Format in all cases: in vivo
[1] = tested on: Eiysiphe graminis f. sp. tritici; experiment: Test A: wheat powdery mildew, preventive spray on wheat seedlings; conditions: for Test A disease control rating: wheat powdery mildew; for Test A disease control rating (100 = 100% disease control, 0 = no disease control): wheat seedlings sprayed to run-off, inoculated the following day, rating relative to controls, unmarked compounds (standard test rate)
Procedure, shortened: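 Compounds (3% acetone, 250 ppm Trem 014) sprayed to run-off on wheat seedlings, inoculated next day with spore dust. Incubated 7 days at 20° C before disease rating, 0–100% control relative to untreated controls.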

[2] = tested on: Puccinia recondita; experiment: Test B: wheat leaf rust, preventive spray on wheat seedlings; conditions: for Test B disease control rating: wheat leaf rust; for Test B disease control rating (100 = 100% disease control, 0 = no disease control): wheat seedlings sprayed to run-off, inoculated the following day, rating relative to controls, unmarked compounds (standard test rate)
Procedure, shortened: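 Wheat seedlings were sprayed to run-off with compound (3% acetone, 250 ppm Trem 014), then inoculated with P. recondita spores the next day. They were held 24 h saturated at 20 °C, then 6 days at 20 °C. Ratings are 0–100% disease control versus controls.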

[3] = tested on: Pyricularia oryzae; conditions: for Test C disease control rating: rice blast; for Test C disease control rating (100 = 100% disease control, 0 = no disease control): rice seedlings sprayed to run-off, inoculated the following day, rating relative to controls, unmarked compounds (standard test rate)
[4] = tested on: Phytophthora infestans; conditions: for Test D disease control rating: tomato late blight; for Test D disease control rating (100 = 100% disease control, 0 = no disease control): tomato seedlings sprayed to run-off, inoculated the following day, rating relative to controls, unmarked compounds (standard test rate)
[5] = tested on: Botrytis cinerea; experiment: Test E: gray mold, preventive spray on cucumber seedlings; conditions: for Test E disease control rating: gray mold on cucumber; for Test E disease control rating (100 = 100% disease control, 0 = no disease control): cucumber seedlings sprayed to run-off, inoculated the following day, rating relative to controls, unmarked compounds (standard test rate)
Procedure, shortened: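 Compounds in 3% acetone were suspended with 250 ppm Trem 014 surfactant and sprayed to run-off on cucumber seedlings. B. cinerea spores were inoculated next day, then 48 h saturated humidity at 20° C and 5 days at 20° C. Disease control rated 0–100% versus controls.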

[6] = 100 = 100% disease control, 0 = no control relative to controls, unmarked entries (standard test concentration)
[7] = 100 = 100% disease control, 0 = no control, unmarked entries (standard test concentration)

`CCC1(C(=O)NC(C)COc2ccc(Br)cc2F)C(C)C1(Cl)Cl` (mixture of isomers) [compound 122] was tested, and the “Test A disease control rating” value [1, 6] was 0%, the “Test B disease control rating” value [2, 7] was 0% and the “Test C disease control rating” value [3, 7] was 0%. The “Test D disease control rating” value [4, 7] was 0% and the “Test E disease control rating” value [5, 7] was 0%.
`CCC1(C(=O)NC(C)COc2c(F)cccc2C#N)C(C)C1(Cl)Cl` (mixture of isomers) [compound 316] was tested, and the “Test A disease control rating (100 = 100% disease control, 0 = no disease control)” value [1] was 0%, the “Test B disease control rating (100 = 100% disease control, 0 = no disease control)” value [2] was 0% and the “Test C disease control rating (100 = 100% disease control, 0 = no disease control)” value [3] was 53%. For the same compound, the “Test D disease control rating (100 = 100% disease control, 0 = no disease control)” value [4] was 0% and the “Test E disease control rating (100 = 100% disease control, 0 = no disease control)” value [5] was 0%.
`Cc1c(Br)cc(C#N)n1CCC(C)NC(=O)C(C#N)C(C)C(C)(C)C` (mixture of isomers) [compound 73] was tested, and the “Test A disease control rating” value [1, 6] was 30%, the “Test B disease control rating” value [2, 7] was 28% and the “Test C disease control rating” value [3, 7] was 53%. The “Test D disease control rating” value [4, 7] was 0% and the “Test E disease control rating” value [5, 7] was 11%.
With `C[C@H](COc1cc(F)cc(F)c1Cl)NC(=O)C(C#N)C(C)(C)C` (single isomer, unassigned) [169b] the “Test A disease control rating” value [1, 6] was 0%, the “Test B disease control rating” value [2, 7] was 0% and the “Test C disease control rating” value [3, 7] was 97%. The “Test D disease control rating” value [4, 7] was 0% and the “Test E disease control rating” value [5, 7] was 0%.
`CCC1(C(=O)NC(C)COc2cc(F)cc(F)c2Cl)C(C)C1(Cl)Cl` (stereo not shown) [compound 123] was tested, and the “Test A disease control rating” value ([1]; tested at 40 ppm) was 90%, the “Test B disease control rating” value ([2]; tested at 40 ppm) was 0% and the “Test C disease control rating” value ([3]; tested at 40 ppm) was 53%. The “Test D disease control rating” value ([4]; tested at 40 ppm) was 0% and the “Test E disease control rating” value ([5]; tested at 40 ppm) was 0%.
With `CC(COc1ccc(Cl)cc1)NC(=O)C(C#N)C(C)(C)C` (single isomer, unassigned) [7b] the “Test A disease control rating” value [1, 6] was 77%, the “Test B disease control rating” value [2, 7] was 0% and the “Test C disease control rating” value [3, 7] was 74%. The “Test D disease control rating” value [4, 7] was 89% and the “Test E disease control rating” value [5, 7] was 47%.
In the case of `CCC1(C(=O)NC(C)COc2cc(F)c(F)cc2F)C(C)C1(Cl)Cl` (stereo not shown) [compound 110], the “Test A disease control rating” value ([1]; tested at 40 ppm) is reported as 90%, the “Test B disease control rating” value ([2]; tested at 40 ppm) is reported as 0% and the “Test C disease control rating” value ([3]; tested at 40 ppm) is reported as 97%. For the same compound, the “Test D disease control rating” value ([4]; tested at 40 ppm) was 0% and the “Test E disease control rating” value ([5]; tested at 40 ppm) was 0%.
For `CC(COc1ccccc1C(C)(C)C)NC(=O)C(C#N)C(C)(C)C` (mixture of isomers) [compound 23], the “Test A disease control rating” value [1, 6] was 0%, the “Test B disease control rating” value [2, 7] was 0% and the “Test C disease control rating” value [3, 7] was 97%. The “Test D disease control rating” value [4, 7] was 48% and the “Test E disease control rating” value [5, 7] was 0%.
In the case of `Cc1c(Cl)cc(C#N)n1OCC(C)NC(=O)C(C#N)C(C)C(C)(C)C` (mixture of isomers) [71a], the “Test A disease control rating” value [1, 6] is reported as 0%, the “Test B disease control rating” value [2, 7] is reported as 0% and the “Test C disease control rating” value [3, 7] is reported as 53%. The “Test D disease control rating” value [4, 7] was 19% and the “Test E disease control rating” value [5, 7] was 0%.
For `CCC1(C(=O)NC(C)COc2ccccc2C(C)C)C(C)C1(Cl)Cl` (stereo not shown) [compound 99], the “Test A disease control rating” value ([1]; tested at 40 ppm) was 83%, the “Test B disease control rating” value ([2]; tested at 40 ppm) was 0% and the “Test C disease control rating” value ([3]; tested at 40 ppm) was 0%. The “Test D disease control rating” value ([4]; tested at 40 ppm) was 68% and the “Test E disease control rating” value ([5]; tested at 40 ppm) was 0%.
For `CCC1(C(=O)NC(C)COc2cccc(Br)c2)C(C)C1(Cl)Cl` (mixture of isomers) [85b], the “Test A disease control rating” value ([1]; tested at 40 ppm) was 0%, the “Test B disease control rating” value ([2]; tested at 40 ppm) was 0% and the “Test C disease control rating” value ([3]; tested at 40 ppm) was 53%. For the same compound, the “Test D disease control rating” value ([4]; tested at 40 ppm) was 0% and the “Test E disease control rating” value ([5]; tested at 40 ppm) was 0%.
In the case of `C#CC(C)(C)C(C#N)C(=O)NC(C)COc1cc(F)ccc1Cl` (mixture of isomers) [compound 193], the “Test A disease control rating” value [1, 6] is reported as 0%, the “Test B disease control rating” value [2, 7] is reported as 0% and the “Test C disease control rating” value [3, 7] is reported as 100%. The “Test D disease control rating” value [4, 7] was 0% and the “Test E disease control rating” value [5, 7] was 55%.
`CCC1(C(=O)NC(C)COc2ccccc2Cl)C(C)C1(Cl)Cl` (mixture of isomers) [81b] was tested, and the “Test A disease control rating” value ([1]; tested at 40 ppm) was 85%, the “Test B disease control rating” value ([2]; tested at 40 ppm) was 0% and the “Test C disease control rating” value ([3]; tested at 40 ppm) was 74%. The “Test D disease control rating” value ([4]; tested at 40 ppm) was 0% and the “Test E disease control rating” value ([5]; tested at 40 ppm) was 0%.
In the case of `CCC1(C(=O)NC(C)COc2c(F)ccc(F)c2C#N)C(C)C1(Cl)Cl` (mixture of isomers) [compound 258], the “Test A disease control rating (100 = 100% disease control, 0 = no disease control)” value [1] is reported as 74%, the “Test B disease control rating (100 = 100% disease control, 0 = no disease control)” value [2] is reported as 27% and the “Test C disease control rating (100 = 100% disease control, 0 = no disease control)” value [3] is reported as 94%. The “Test D disease control rating (100 = 100% disease control, 0 = no disease control)” value [4] was 0% and the “Test E disease control rating (100 = 100% disease control, 0 = no disease control)” value [5] was 0%.
With `C=CC(C)(C)C(C#N)C(=O)N[C@H](C)COc1cc(Cl)ccc1Cl` (single isomer, unassigned) [215b] the “Test A disease control rating (100 = 100% disease control, 0 = no disease control)” value [1] was 0%, the “Test B disease control rating (100 = 100% disease control, 0 = no disease control)” value [2] was 28% and the “Test C disease control rating (100 = 100% disease control, 0 = no disease control)” value [3] was 99%. The “Test D disease control rating (100 = 100% disease control, 0 = no disease control)” value [4] was 76% and the “Test E disease control rating (100 = 100% disease control, 0 = no disease control)” value [5] was 83%.
`C=CCc1ccccc1OCC(C)NC(=O)C(C#N)C(C)(C)C` (mixture of isomers) [25a] was tested, and the “Test A disease control rating” value [1, 6] was 95%, the “Test B disease control rating” value [2, 7] was 28% and the “Test C disease control rating” value [3, 7] was 32%. For the same compound, the “Test D disease control rating” value [4, 7] was 0% and the “Test E disease control rating” value [5, 7] was 0%.
With `C=CCc1cccc(C)c1OCC(C)NC(=O)C1(CC)C(C)C1(Cl)Cl` (stereo not shown) [compound 119] the “Test A disease control rating” value [1, 6] was 31%, the “Test B disease control rating” value [2, 7] was 0% and the “Test C disease control rating” value [3, 7] was 32%. The “Test D disease control rating” value [4, 7] was 0% and the “Test E disease control rating” value [5, 7] was 0%.
`CC(COc1cc(F)cc(F)c1C#N)NC(=O)C(C#N)C(C)C(C)(C)C` (mixture of isomers) [compound 69] was tested, and the “Test A disease control rating” value [1, 6] was 0%, the “Test B disease control rating” value [2, 7] was 0% and the “Test C disease control rating” value [3, 7] was 53%. The “Test D disease control rating” value [4, 7] was 2% and the “Test E disease control rating” value [5, 7] was 0%.
`C[C@H](COc1cccc(Cl)c1Cl)NC(=O)C(C#N)C(C)(C)C` (single isomer, unassigned) [31b] was tested, and the “Test A disease control rating” value [1, 6] was 0%, the “Test B disease control rating” value [2, 7] was 0% and the “Test C disease control rating” value [3, 7] was 94%. For the same compound, the “Test D disease control rating” value [4, 7] was 0% and the “Test E disease control rating” value [5, 7] was 0%.
`CC(COc1ccccc1)NC(=O)C(C#N)C(C)(C)C` (single isomer, unassigned) [1c] was tested, and the “Test A disease control rating” value [1, 6] was 60%, the “Test B disease control rating” value [2, 7] was 85% and the “Test C disease control rating” value [3, 7] was 73%. The “Test D disease control rating” value [4, 7] was 16% and the “Test E disease control rating” value [5, 7] was 0%.
For `C#CC(C)(C)C(C#N)C(=O)NC(C)COc1cc(C)ccc1Cl` (mixture of isomers) [compound 213], the “Test A disease control rating” value [1, 6] was 63%, the “Test B disease control rating” value [2, 7] was 0% and the “Test C disease control rating” value [3, 7] was 99%. For the same compound, the “Test D disease control rating” value [4, 7] was 62% and the “Test E disease control rating” value [5, 7] was 0%.
With `C[C@H](COc1ccc(F)c(F)c1F)NC(=O)C(C#N)C(C)(C)C` (single isomer, unassigned) [190b] the “Test A disease control rating” value [1, 6] was 0%, the “Test B disease control rating” value [2, 7] was 0% and the “Test C disease control rating” value [3, 7] was 94%. The “Test D disease control rating” value [4, 7] was 0% and the “Test E disease control rating” value [5, 7] was 0%.
For `CCCc1cccc(C#N)c1OCC(C)NC(=O)C(C#N)C(C)(C)C` (mixture of isomers) [compound 205], the “Test A disease control rating” value [1, 6] was 0%, the “Test B disease control rating” value [2, 7] was 68% and the “Test C disease control rating” value [3, 7] was 74%. For the same compound, the “Test D disease control rating” value [4, 7] was 0% and the “Test E disease control rating” value [5, 7] was 0%.
